Data from PMC3806459, “Cyclodextrin Formulation of the Marine Natural Product Pseudopterosin A Uncovers Optimal Pharmacodynamics in Proliferation Studies of Human Umbilical Vein Endothelial Cells” (Marine Drugs, 2013).
One block for each compound: values may come before it.

Key:
[1] = log P by reverse phase HPLC; format: physicochemical; conditions: RP-HPLC retention time vs toluene and triphenylene; n = 4; read-out: Direct log P
Source text: Reverse phase HPLC (RP-HPLC) has been previously used to measure the logarithm of the octanol-water partition coefficient (log P) of many compounds [11]. To obtain the log P values recorded herein, the retention times of the compounds of interest (Table 1) along with the retention times of internal standards (toluene and triphenylene) were utilized. The resulting quantities were then substituted into Equation 1: [drawing 1] (1) where the abbreviation tol refers to toluene, triph to triphenylene, and t to the retention time. Details concerning how this equation was derived have been described by Donovan and Pescatore.
HPLC recordings were achieved using a Hewlett Packard HP/Agilent 1100 HPLC system connected to a 1 cm × 4.6 mm, 5 µm aPHera™ C18 Polymer HPLC column (catalog number 56130AST). Colorimetric assays were performed on a Molecular Devices Vmax microplate reader.

[2] = tested on: PMA induced mouse ear edema; assay: phorbol myristate acetate (PMA) induced mouse ear edema assay; format: in vivo; conditions: topical 50 µg/ear with PMA 2 µg/ear, 3 h 20 min; (1/SA) in milligrams of inhibited edema per mol of drug; n = 10
Description: The compounds were then assessed using the standard phorbol myristate acetate (PMA) induced mouse ear edema assay to determine their anti-inflammatory specific activity. In this assay, the specific activity of the drug, SA, is expressed as log(1/SA). For the mouse ear model, the molar concentration of the drug was calculated using Equation 2: SA = (mol of drug) (∆ in edema from control)^−1(2) where the difference in edema from control, ∆, refers to the difference in the average weight of the mouse ear between treated and untreated biopsies. The outcome, (1/SA), is expressed in units of milligrams of inhibited edema per mol of drug. […] Note Table 1.
Male Swiss Webster albino mice were briefly anesthetized with halothane. Compounds were topically applied to the inside pinnae of the ears of the mice in a solution containing the edema-causing irritant PMA. PMA alone (2 µg/ear) or in combination with the test compound (50 µg/ear) were dissolved in acetone and applied to the left ears (5 mice per treatment group, n = 10/compound), and acetone alone was applied to all right ears. After 3 h and 20 min incubation, the mice were euthanized, the ears removed and a 6 mm diameter biopsy was taken from the center of each ear and immediately weighed. Edema was measured by subtracting the weight of the right ear (acetone control) from the weight of the left ear (treated). Compounds that were not soluble in 100% acetone were dissolved in 20% ethanol: 80% acetone v/v. Results were recorded as % decrease (inhibition) in edema relative to the PMA control group edema.

wound healing = tested on: wound healing; design: method as in PMID 20363514; conditions: topical; ref [5]; cited from earlier work
early wound repair = tested on: early wound repair; design: method as in ref [7] = [7]; 7. Vimrx Pharmaceuticals New Drug Application VM 301 for Use in Phase I/IIA Clinical Trials IND 60,606 12 7 2000; conditions: Phase II, double blind; ref [7]; cited from earlier work
HUVEC cells [3] = tested on: HUVEC cells; design: method as in PMID 2875457, PMID 3574294, PMID 21556163; conditions: all formulation systems tested; ref [1],[22],[23]; cited from earlier work
aqueous solubility = format: physicochemical; conditions: without DMSO, Cremophor or cyclodextrin
Source text: […] Reverse phase HPLC was utilized as described in Section 3.3 above to confirm the quantity of solubilized drug that remained unchanged between formulations.

human neutrophils = tested on: human neutrophils; design: method as in ref [3] = [3]; 3. Luedke E.S. The Identification and Characterization of Pseudopterosins: Anti-Inflammatory Agents Isolated from the Gorgonian Coral Pseudopterogorgia elisabethae Ph.D. Thesis University of Californi; conditions: in vitro; ref [3]; cited from earlier work
HUVEC cells [4] = assay: WST-1 cell proliferation assay; format: cell-based, human
Description: Figure 4 PsA Potently Activates HUVEC Proliferation. […] Note saturation kinetics. Cytotoxicity is illustrated as a vertical dashed line at 1.5 × 10^−5 M in all vehicles tested. The percentage increase was calculated as [100 × (T/C)] where T/C is defined as […]. Data are presented as mean ± SEM (n = 16).
(§1) For each experiment cells were split at 80% confluence. All experiments were conducted between generations 4 and 10.
HUVEC were harvested from a T-75 plate by trypsinization and resuspended in EGM-2 complete culture media. Cells were plated at 500 cells per well of a 96-well plate and incubated overnight at 37 °C in a 5% CO2 atmosphere. EGM-2 complete culture media was removed and replaced with starvation media for 8 h. During this time, drug dilutions were prepared in growth factor depleted media. Starvation media was replaced with drug dilution in growth factor depleted media and incubated at 37 °C in a 5% CO2 atmosphere. After 41 h, 10 µL of WST-1 reagent was added to each well and incubated for 1 h. Plates were then read on a multiplate reader at 450 nm with background reference of 650 nm.

[5] = tested on: human adenosine A3 receptor; design: method as in doi:10.1016/j.tet.2009.09.021; conditions: DMSO formulation; high amount of non-specific binding; ref [4]; cited from earlier work
[6] = stability of the cyclodextrin inclusion complex by HPLC and NMR; format: physicochemical; conditions: PsA inclusion complex in HPβCD; observed by HPLC and NMR
Description: Hydroxypropyl-beta-cyclodextrin (HPβCD) was added to DI-water at a concentration of 20% w/v. The mixture was then vortexed and sonicated briefly to yield a colorless, transparent, slightly viscous liquid. Separately, a given quantity of pseudopterosin A (PsA) was then solubilized in 100% methanol to yield a yellow, transparent liquid. An aliquot of this solution was then added to a culture tube and dried under inert atmosphere yielding an off-white solid. The previously prepared hydroxypropyl-beta-cyclodextrin solution was then added and vortexed for 10 min. The mixture was orbitally shaken at 4 °C for at least 7 days prior to use to ensure equilibration of the cyclodextrin drug complex. […] Stability was conserved at least 14 days, as observed by HPLC and NMR.

HUVEC cells [7] = assay: scratch migration assay; format: cell-based, human; conditions: 3.9 × 10^−8 M PsA in 0.05% HPβCD, depleted media, over 10 h; n = 16
Description: The in vitro scratch assay is commonly used to simulate cellular events that accompany the presence of a wound. Here, a thin scratch made in a cellular monolayer mimics the wound. The migration of cells in response to the scratch is then monitored using microscopic images at various time points to determine the rate of migration.
as §1
HUVEC were harvested from a T-75 plate by trypsinization and resuspended in EGM-2 complete culture media and were plated into T-25 cell culture flasks and allowed to grow to approx 90% confluence. EGM-2 complete culture media was then removed and replaced with starvation media for 8 h. A uniform scratch in the monolayer was then produced using a sterile pipette tip approximately 500 µm in width. Starvation media was replaced with 5 mL of either PsA in drug dosing media, or HPβCD in drug dosing media, or HPβCD in EGM-2 complete culture media. Microscopic images were taken at 400 times magnification every 5 min beginning at t = 0, and continuing until t = 10 h. Images were analyzed by determining the distance between cells on either side of scratch over time. Percent scratch closure was set to be a function of 1 − (average distance at each time point/average width of scratch).

[8] = tested on: human adenosine A1 receptor; design: method as in doi:10.1016/j.tet.2009.09.021; conditions: DMSO formulation; high amount of non-specific binding; ref [4]; cited from earlier work
[9] = tested on: human adenosine A2B receptor; design: method as in doi:10.1016/j.tet.2009.09.021; conditions: DMSO formulation; high amount of non-specific binding; ref [4]; cited from earlier work
[10] = tested on: human adenosine A2A receptor; design: method as in doi:10.1016/j.tet.2009.09.021; conditions: DMSO formulation; high amount of non-specific binding; ref [4]; cited from earlier work
HUVEC cells [11] = assay: HUVEC cytotoxicity elicited by drug formulations (LDH release); conditions: vehicle alone: 0.02% DMSO, 0.016% Cremophor EL, 0.05% HPβCD; 42 h, growth factor depleted media, 37 °C; n = 4
Description: HUVEC LDH release with (A) 0.02% DMSO (B) 0.016% Cremophor EL and (C) 0.05% HPβCD after 42 h in growth factor depleted media at 37 °C. Data are presented as mean ± SEM (n = 4).
Dimethylsulfoxide (DMSO) is the most widely utilized solvent, and is used extensively in biological assays for attaining aqueous solubility for non-polar drug molecules. To determine the potential cytotoxic effects associated with DMSO, Cremophor EL, and HPβCD in a HUVEC system, we report three conditions that were chosen after considering the minimum required vehicle concentration for PsA (drug) solubility.
All cell culture experiments were performed using HUVEC cells initially seeded at 3 × 10^5 cells/75 cm^2 flask and fed every 1–2 days with fresh EGM-2 complete culture media (EBM-2 basal media with hVEGF, hFGF, hIGF, hEGF, hydrocortisone, ascorbic acid, heparin, 2% FBS, and GA-1000). For each experiment cells were split at 80% confluence. All experiments were conducted between generations 4 and 10. Starvation media consisted of EBM-2 basal media with 0.1% FBS, and GA-1000 (antibiotic mixture). Growth factor depleted media consisted of EBM-2 basal media with 2% FBS, hydrocortisone, ascorbic acid, heparin, and GA-1000.

chromatographic logP [1]: 3.95 ± 0.02
SMILES: CC(C)=CC1CC(C)C2CCC(C)C3=C2C1=C(C)C(=O)C31OC2OC(C)C(O)C(O)C2O1 (stereo not shown) [Analog 1, pseudopterosin keto ketal]
log(1/SA) (anti-inflammatory specific activity) [2]: 7.63 ± 0.06 mg/mol

chromatographic logP [1]: 4.59 ± 0.05
SMILES: CC(C)=C[C@H]1C[C@H](C)[C@H]2CC[C@H](C)c3c(O[C@@H]4O[C@@H](C)[C@@H](O)[C@@H](O)[C@@H]4O)c(O)c(C)c1c32 [Analog 5, iso-PsE]
log(1/SA) (anti-inflammatory specific activity) [2]: 8.02 ± 0.02 mg/mol

Second part, the compound before the results:

SMILES: COc1c(C)c2c3c(c1O[C@@H]1OC[C@@H](O)[C@H](O)[C@H]1O)[C@@H](C)CC[C@@H]3[C@@H](C)C[C@@H]2C=C(C)C [Analog 3, PsA methyl ether]
efficacy in wound healing (wound healing): topical efficacy | chromatographic logP [1]: 4.37 ± 0.02 | effect on early wound repair above vehicle alone (early wound repair): increased angiogenesis, granulation, and re-epithelialization

SMILES: CC(C)=C[C@H]1C[C@H](C)[C@H]2CC[C@H](C)c3c(O[C@@H]4OC[C@@H](O)[C@H](O)[C@H]4O)c(O)c(C)c1c32 [Analog 4, Pseudopterosin A]
cytotoxic concentration (HUVEC cells [3]): > 10 µM | solubility in an aqueous medium (aqueous solubility): low solubility | effect on calcium ionophore induced degranulation and infiltration (human neutrophils): inhibited | chromatographic logP [1]: 4.42 ± 0.06 | log(1/SA) (anti-inflammatory specific activity) [2]: 8.08 ± 0.01 mg/mol | increase in proliferation (HUVEC cells [4]; 1.0 × 10^−7 M PsA in HPβCD): 25% | increase in potency of HPβCD formulation over DMSO formulation (HUVEC cells [4]; HUVEC proliferation): 200 fold | increased HUVEC proliferation (HUVEC cells [4]; PsA in 0.016% Cremophor EL, 42 h): 15% | increase in proliferation (HUVEC cells [4]; PsA in 0.02% DMSO, 42 h, compared to DMSO alone): 30% ± 4.8% | Kd (HUVEC cells [4]; PsA in 0.05% HPβCD, from analysis of proliferation dose response): 0.0145 µM | concentration at which cytotoxicity occurred (HUVEC cells [4]; all formulations/vehicles tested in HUVEC cells): ≥ 15 µM | binding affinity [5]: micromolar | stability conserved [6]: at least 14 days | rate of HUVEC cell migration (HUVEC cells [7]): 9.98 ± 1.2 µm h^−1 | binding affinity [8]: micromolar | binding affinity [9]: micromolar | binding affinity [10]: micromolar

SMILES: C[S+](C)[O-] [DMSO, Dimethylsulfoxide]
LDH release (cytotoxicity) (HUVEC cells [11]): 18.4% ± 1.6%
